Patent US20240376035A1, “METHOD FOR PRODUCING HESPERETIN DIHYDROCHALCONE” (SYMRISE AG, priority 2022, published 2024)

Assays:
trained expert panel = experiment: Sensory descriptive analysis of ice tea prototypes in different bases (Example 15); type: in vivo; conditions: for ANOVA (sweetness factor score): 10 ppm hesperetin dihydrochalcone and/or 3 ppm hesperetin; for effect on the sweetness factor: main and interaction effects in different bases, all sign. p<0.0001
Description: Based on an experimental design, 86 ice tea prototypes (drinkable preparations) were created that systematically varied regarding different sources of sweetness conveyed by sugars (e.g. HFCS (high fructose corn syrup), invert sugar syrup), sweeteners (Reb A, Reb D, Reb M, sucralose, acesulfame K) as well as hesperetin dihydrochalcone (HC) and hesperetin (HT) (the results are depicted in Table 2).
In order to investigate the effect of HT and HC on perceived sweetness dimensions, the 86 samples were profiled (sensory descriptive analysis) by a trained expert panel consisting of 12 panelists. The panelists were trained on an ice tea language with focus on sweetness attributes. Each attribute was scored on an unstructured line scale (10 cm) for its perceived intensity. To ensure high data reliability, every sample was tested twice. The sweetness attributes “sweetness onset”, “sweetness overall intensity” and “sweetness long-lastingness” were aggregated to a so-called sweetness factor using factor analysis (principal component analysis with VARIMAX rotation). The sweetness factor score runs from neg. infinity to positive infinity. By applying statistical modelling (JMP software: fit model: standard least squares, Analysis of Variance: DF 86, F 19.6907, p<0.0001; Rsquare 0.972) all significant main and two-way interaction effects were identified amongst which HC (p<0.0001), HT (p<0.0001) and the interaction of HC and HT (p<0.0001) were identified. These main and interaction effects were further tested in different bases (see table 2) using ANOVA, p<0.05; post hoc test: LSD.

[1] = preparations having a high content of acid such as lemonades or fruit juices; cited from earlier work
[2] = Acesulfame K Ice tea Base, 60 ppm
[3] = HFCS Ice tea Base, 2 wt. % High Fructose corn syrup
[4] = Invert Sugar Syrup Ice tea Base, 2 wt. % invert sugar syrup
[5] = Reb A Ice tea Base, 60 ppm rebaudioside A
[6] = Reb A/Reb D Ice tea Base, 60 ppm rebaudioside A/60 ppm rebaudioside D
[7] = Reb A/Reb M Ice tea Base, 60 ppm rebaudioside A/45 ppm rebaudioside M
[8] = Reb M/Reb D Ice tea Base, 45 ppm rebaudioside M/60 ppm rebaudioside D
[9] = Sucralose Ice tea Base, 100 ppm sucralose

SMILES | ANOVA (sweetness factor score) (trained expert panel; [2]) | ANOVA (sweetness factor score) (trained expert panel; [3]) | ANOVA (sweetness factor score) (trained expert panel; [4]) | ANOVA (sweetness factor score) (trained expert panel; [5]) | ANOVA (sweetness factor score) (trained expert panel; [6]) | ANOVA (sweetness factor score) (trained expert panel; [7]) | ANOVA (sweetness factor score) (trained expert panel; [8]) | ANOVA (sweetness factor score) (trained expert panel; [9]) | ANOVA (sweetness factor score) (trained expert panel; Sugar Free Ice tea Base) | effect on the sweetness factor (trained expert panel) | effectivity as intensifier of the sweet flavour [1]
COc1ccc(CCC(=O)c2c(O)cc(O)cc2O)cc1O [Hesperetin dihydrochalcone] | −0.1 | −0.9 | −1 | −0.5 | −0.1 | 0 | −0.3 | −0.8 | −1.3 | positive effect | –
COc1ccc([C@@H]2CC(=O)c3c(O)cc(O)cc3O2)cc1O [Hesperetin, hesperetin] | −2.4 | −3.2 | −3.3 | −2.8 | −2.4 | −2.3 | −2.6 | −3.1 | −3.6 | smallest positive effect | diminished effectivity
